Test results published in patent publication US7507776B2, “Outdoor weatherable photopolymerizable coatings” (3M Innovative Properties Company, priority 2003, dated 2009).
Like-named read-outs stand apart in the source and are kept apart here.

Assay: 48 hr solubility of benzotriazole UV absorbers in solubilizing monomers
Procedure: The solubility of the benzotriazole 2-(2-hydroxy-3-alpha-cumyl-5-t-octylphenyl)-5-trifluoromethylbenzotriazole (CGL-139, experimentally available from Ciba Specialty Chemicals) in various solubilizing monomers was determined. Mixtures were made up using 5% increments of the benzotriazole. The benzotriazole and solubilizing monomer to be tested were mixed with gentle heating to 70° C. in a water bath until dissolved, then allowed to stand for 48 hours at room temperature. After 48 hours, each mixture was inspected for benzotriazole precipitation. Solubility was determined to within 5% by recording the highest concentration tested for which there was no precipitation and the lowest concentration for which precipitation occurred. […] Where reported in the literature, the Tg of a polymer made entirely of the tested solubilizing monomer is also given.
Using the method of Example 1, the solubility of a variety of benzotriazoles in isobornyl acrylate was determined. The formula for each of the tested benzotriazoles is set out above. These benzotriazoles can also be represented using the general structure 2-(2-hydroxy-3-R2-5-R3-phenyl)-5-R1-benzotriazole. For CGL-139, R1=trifluoromethyl, R2=alpha-cumyl, and R3=t-octyl. For TINUVIN 928, R1=H, R2=alpha-cumyl, and R3=t-octyl. For Tinuvin 328, R1=H, R2=t-amyl, and R3=t-amyl. For TINUVIN 327, R1=chloro, R2=t-butyl, and R3=t-butyl. For TINUVIN 326, R1=chloro, R2=t-butyl, and R3=methyl. For both TINUVIN 234 and TINUVIN 900, R1=H, R2=alpha-cumyl, and R3=alpha-cumyl.

[1] = in isobornyl acrylate, method of Example 1, 48 hours at room temperature

Structure (SMILES)	Benzotriazole 48 hr Solubility, wt. %	Benzotriazole 48 hr Solubility, wt. % [1]
CC(C)(C)CC(C)(C)c1cc(-n2nc3ccc(C(F)(F)F)cc3n2)c(O)c(C(C)(C)c2ccccc2)c1 [CGL-139, 2-(2-hydroxy-3-alpha-cumyl-5-t-octylphenyl)-5-trifluoromethylbenzotriazole]	25-30% wt. %	–
CC(C)(C)CC(C)(C)c1cc(-n2nc3ccccc3n2)c(O)c(C(C)(C)c2ccccc2)c1 [TINUVIN 928, 2-(2-hydroxy-3-alpha-cumyl-5-tert-octylphenyl)-2H-benzotriazole]	30-35% wt. %	–
CC(C)(c1ccccc1)c1cc(-n2nc3ccccc3n2)c(O)c(C(C)(C)c2ccccc2)c1 [TINUVIN 900, 2-(2-hydroxy-3,5-di-alpha-cumylphenyl)-2H-benzotriazole]	–	0-5% wt. %
CC(C)(C)c1cc(-n2nc3ccc(Cl)cc3n2)c(O)c(C(C)(C)C)c1 [TINUVIN 327, 5-chloro-2-(2-hydroxy-3,5-di-tert-butylphenyl)-2H-benzotriazole]	–	5-10% wt. %
CCC(C)(C)c1cc(-n2nc3ccccc3n2)c(O)c(C(C)(C)CC)c1 [TINUVIN 328, 2-(2-hydroxy-3,5-di-tert-amylphenyl)-2H-benzotriazole]	–	20-25% wt. %
Cc1cc(-n2nc3ccc(Cl)cc3n2)c(O)c(C(C)(C)C)c1 [TINUVIN 326, 5-chloro-2-(2-hydroxy-3-tert-butyl-5-methylphenyl)-2H-benzotriazole]	5-10% wt. %	–
